Data from article PMC5049785, “Characterization of Novel Antimalarial Compound ACT-451840: Preclinical Assessment of Activity and Dose–Efficacy Modeling” (PLoS Medicine, 2016).

Legend:
[1] = Safety pharmacology in dogs; assay type: in vivo; details: dogs dosed up to 500 mg/kg
[2] = Blood to plasma ratio with 14C-labeled compound; assay type: in vitro ADME; details: human fresh whole-blood, 0.5 μg/mL, 60 minutes, 37 °C
Experimental: The blood to plasma ratio was determined using ^14C-labeled ACT-451840 at Actelion Pharmaceuticals Ltd. (Allschwil, Switzerland). For this, human fresh whole-blood was spiked with a mixture of non-labeled and ^14C-labeled ACT-451840 at a nominal concentration of 0.5 μg / mL and incubated for 60 minutes on a rotary mixer at 37 °C. Radioactivity was determined by liquid scintillation counting in whole blood and after preparation of plasma.

[3] = tested on: Cam3.II^C580Y and Cam3.II^rev 0–3 h postinvasion rings; experiment: Ring-stage survival assay (RSA0-3h); assay type: cell-based, P. falciparum; details: 6-h pulse, 35–700 nM, survival assessed 66 h later
Experimental: Ring-stage survival assays (RSA0-3h) were carried out at Columbia University Medical Center (New York, United States) as previously described. Parasite cultures were synchronized using 5% sorbitol (Sigma-Aldrich), and schizonts were incubated in RPMI-1640 containing 15 units/ml sodium heparin for 15 min at 37°C to disrupt agglutinated erythrocytes. These schizonts were concentrated over a gradient of 75% Percoll (Sigma-Aldrich), washed once in RPMI-1640, and incubated for 3 h with fresh erythrocytes to allow time for merozoite invasion. Cultures were then subjected again to sorbitol treatment to eliminate remaining schizonts. The 0–3 h postinvasion rings were adjusted to 1% parasitemia and 2% hematocrit in 1 mL volumes (in 48-well plates) and exposed to a range of ACT-451840 drug concentration (700–35 nM) or 0.1% DMSO for 6 h. Duplicate wells were established for each parasite line ± drug concentration. One-mL cultures were then transferred to 15-mL conical tubes, centrifuged at 800xg for 5 min to pellet the cells, and the supernatants carefully removed. As a washing step to remove drug, 10 mL culture medium were added to each tube, and the cells were resuspended, centrifuged, and the medium was aspirated. […] Stained parasites were detected using a BD Accuri 6 Flow Cytometer and analyzed using FlowJo Software. IC50 values were determined by nonlinear regression using GraphPad Prism 6.0. […]

[4] = tested on: P. falciparum NF54 male gametocytes; experiment: P. falciparum dual gamete formation assay, male; assay type: cell-based, Plasmodium falciparum; details: 24 h incubation; ± SD; read-out: IC50 male gamete formation (exflagellation centers)
Experimental: Mature P. falciparum NF54 gametocytes were cultured at Imperial College London (London, United Kingdom), as previously described. […] Male gamete formation was quantified by computer-aided automated identification and counting of exflagellation centers. Female gamete formation was visualized by live immunofluorescence with a Cy3-conjugated antibody specific for Pfs25—a female gamete expressed surface protein. […] IC50 values were calculated using GraphPad Prism version 6 using the logarithmic versus normalized response (variable slope) function (Graphpad Software, San Diego, US).

[5] = tested on: P. falciparum TM90C2A (Thailand); experiment: [3H]-hypoxanthine incorporation assay, TM90C2A; assay type: cell-based, Plasmodium falciparum; details: read-out: 50% inhibitory concentration (IC50), resistance CQ, PYR, MFQ, CYC, mean ± SD
[6] = tested on: GFP-transfected P. berghei ANKA strain; experiment: In vivo efficacy, P. berghei mouse model; set-up: species or system Plasmodium berghei in female NMRI mice; details: for infected mice cured: no detectable parasites on Day 30, n=5
Experimental: In vivo efficacy against P. berghei was conducted at the Swiss TPH as previously described, with the modification that female NMRI mice from Harlan (Horst, The Netherlands) (n = 3) were infected with a GFP-transfected P. berghei ANKA strain (kindly donated by A. P. Waters and C. J. Janse, Leiden University Medical Center, The Netherlands) and parasitemia was determined using standard flow cytometry techniques. ACT-451840 was dissolved or suspended in corn oil before dosing and administered 24 h after infection (single-dose regimen) or 24, 48, and 72 h after infection (triple-dose regimen). With the single-dose regimen, blood was collected on Day 3 (72 h after infection). Samples for the triple-dose regimens were collected on Day 4 (96 h after infection). Antimalarial activity was calculated as the difference between the mean percent parasitemia for the control and treated groups expressed as a percent relative to the control group, consisting of five mice. Control mice were euthanized on Day 4 in order to prevent death typically occurring on Day 6. For the consistency in PK/PD modeling, Day 5 instead of Day 6 was considered the day of death, because treated animals were always euthanized one day before their natural death for animal welfare reasons. Animals were considered cured if there were no detectable parasites on Day 30 post-infection. To confirm the reliability of this assumption, blood from the surviving mice in curative experiments was inoculated into uninfected mice, and no parasitemia developed in these mice even after 30 d. The antimalarial efficacy is defined either as antimalarial activity or as survival: the two readouts of the P. berghei murine model.

[7] = General oral toxicity study up to 4 wk, rats; assay type: in vivo
[8] = tested on: P. falciparum 7G8 (Brazil); experiment: [3H]-hypoxanthine incorporation assay, 7G8; assay type: cell-based, Plasmodium falciparum; details: read-out: 50% inhibitory concentration (IC50); 7G8, resistance CQ, PYR, CYC; mean ± SD
[9] = single-dose regimen, oral 10 mg/kg
[10] = single-dose regimen, oral 15 mg/kg
[11] = single-dose regimen, oral 20 mg/kg
[12] = single-dose regimen, oral 25 mg/kg
[13] = single-dose regimen, oral 30 mg/kg
[14] = single-dose regimen, oral 60 mg/kg
[15] = single-dose regimen, oral 80 mg/kg
[16] = single-dose regimen, oral 100 mg/kg
[17] = single-dose regimen, oral 300 mg/kg
[18] = triple-dose regimen, oral 3 mg/kg once per day
[19] = triple-dose regimen, oral 50 mg/kg once per day
[20] = triple-dose regimen, oral 100 mg/kg once per day
[21] = triple-dose regimen, oral 300 mg/kg once per day
[22] = triple-dose regimen, oral 2 x 15 mg/kg (twice per day)
[23] = triple-dose regimen, oral 2 x 30 mg/kg (twice per day)

In the case of `CC(=O)N1CCN(c2ccc(CN(C(=O)/C=C/c3ccc(C(C)(C)C)cc3)[C@@H](Cc3ccccc3)C(=O)N3CCN(Cc4ccc(C#N)cc4)CC3)cc2)CC1` [ACT-451840], the “effect on cardiovascular parameters” value [1] is reported as “no effect”, the “blood to plasma concentration ratio” value [2] is reported as 0.6 and the “ring-stage survival rates, wild-type K13 allele versus C580Y mutation” value [3] is reported as “No difference in survival rates”. The IC50 [4] was 5.89 nM, the IC50 [5] was 1 ± 0.3 nM and the infected mice cured ([6]; 100 mg/kg triple-dose regimen) was 20%. The infected mice cured ([6]; 300 mg/kg triple-dose regimen) was 100%, the ED90 ([6]; oral triple-dose regimen, calculated from data in S2 Text) was 13 mg/kg and the “Antimalarial activity (%)” value [6, 9] was 21.75%. For the same molecule, the “Survival” value [6, 9] was 5.0 days, the “Antimalarial activity (%)” value [6, 10] was 39.00% and the “Survival” value [6, 10] was 5.0 days. For the same molecule, the “Antimalarial activity (%)” value [6, 11] was 76.23%, the “Survival” value [6, 11] was 7.0 days and the “Antimalarial activity (%)” value [6, 12] was 90.29%. For the same molecule, the “Survival” value [6, 12] was 6.7 days, the “Antimalarial activity (%)” value [6, 13] was 97.42% and the “Survival” value [6, 13] was 7.9 days. For the same molecule, the “Antimalarial activity (%)” value [6, 14] was 99.40%, the “Survival” value [6, 14] was 13.7 days and the “Antimalarial activity (%)” value [6, 15] was 98.88%. The “Survival” value [6, 15] was 12.7 days, the “Antimalarial activity (%)” value [6, 16] was 99.19% and the “Survival” value [6, 16] was 12.4 days. For the same molecule, the “Antimalarial activity (%)” value [6, 17] was 98.84%, the “Survival” value [6, 17] was 15.7 days and the “Antimalarial activity (%)” value [6, 18] was 0.00%. The “Survival” value [6, 18] was 6.0 days, the “Antimalarial activity (%)” value ([6]; triple-dose regimen, oral 10 mg/kg once per day) was 32.25% and the “Antimalarial activity (%)” value ([6]; triple-dose regimen, oral 30 mg/kg once per day) was 99.53%. The “Antimalarial activity (%)” value [6, 19] was 99.78%, the “Survival” value [6, 19] was 15.6 days and the “Antimalarial activity (%)” value [6, 20] was 99.84%. For the same molecule, the “Survival” value [6, 20] was 21.8 days, the “Antimalarial activity (%)” value [6, 21] was 99.78% and the “Survival” value [6, 21] was 30.0 days. The “Antimalarial activity (%)” value [6, 22] was 99.06%, the “Survival” value [6, 22] was 9.0 days and the “Antimalarial activity (%)” value [6, 23] was 99.81%. The “Survival” value [6, 23] was 14.6 days, the no-observed-adverse-effect level ([7]; oral) was 100 mg/kg/day and the local gastrointestinal toxicity ([7]; oral up to 2,000 mg/kg/day) was “no evidence of local gastrointestinal toxicity”. The IC50 [8] was 0.3 ± 0.1 nM.
